Experiment: xn = mol fraction of the nth substance listed
Details: for viscosity: 101.3 kPa, x2 = 0; for electrical conductivity: 100 kPa

COC(=O)OC + CC[n+]1ccn(C)c1.O=S(=O)([N-]S(=O)(=O)C(F)(F)F)C(F)(F)F
Details	viscosity [mPa·s]
288.15 K	0.668
293.15 K	0.628
298.15 K	0.588
303.15 K	0.553
308.15 K	0.524

CCCCCCCC[n+]1ccccc1.[Br-] + C[C@H](N)C(=O)O + O
Details	electrical conductivity [S/m]
288.15 K, x2 = 0.0008949, x1 = 0.005855	1.24
288.15 K, x2 = 0.000895, x1 = 0.005791	1.23
288.15 K, x2 = 0.0008952, x1 = 0.005507	1.2
288.15 K, x2 = 0.0008955, x1 = 0.005201	1.17
288.15 K, x2 = 0.0008958, x1 = 0.004877	1.14
288.15 K, x2 = 0.0008961, x1 = 0.004522	1.1
288.15 K, x2 = 0.0008965, x1 = 0.004131	1.04
288.15 K, x2 = 0.0008969, x1 = 0.003704	0.975
288.15 K, x2 = 0.0008973, x1 = 0.003232	0.884
288.15 K, x2 = 0.0008977, x1 = 0.002757	0.789
288.15 K, x2 = 0.0008982, x1 = 0.002255	0.678
288.15 K, x2 = 0.0008984, x1 = 0.001938	0.603
288.15 K, x2 = 0.0008988, x1 = 0.001556	0.507
288.15 K, x2 = 0.0008991, x1 = 0.001181	0.405
288.15 K, x2 = 0.0008995, x1 = 0.0007571	0.288
288.15 K, x2 = 0.001794, x1 = 0.002782	0.753
288.15 K, x2 = 0.001795, x1 = 0.002177	0.623
288.15 K, x2 = 0.001796, x1 = 0.001292	0.412
288.15 K, x2 = 0.001796, x1 = 0.001777	0.532
288.15 K, x2 = 0.001797, x1 = 0.0008214	0.291
293.15 K, x2 = 0.0008949, x1 = 0.005848	1.41
293.15 K, x2 = 0.000895, x1 = 0.005786	1.4
293.15 K, x2 = 0.0008952, x1 = 0.005501	1.37
293.15 K, x2 = 0.0008955, x1 = 0.005196	1.33
293.15 K, x2 = 0.0008958, x1 = 0.004871	1.29
293.15 K, x2 = 0.0008961, x1 = 0.004517	1.25
293.15 K, x2 = 0.0008965, x1 = 0.004128	1.18
293.15 K, x2 = 0.0008969, x1 = 0.003703	1.1
293.15 K, x2 = 0.0008973, x1 = 0.003228	1
293.15 K, x2 = 0.0008977, x1 = 0.002756	0.894
293.15 K, x2 = 0.0008982, x1 = 0.002254	0.766
293.15 K, x2 = 0.0008984, x1 = 0.001937	0.68
293.15 K, x2 = 0.0008988, x1 = 0.001555	0.568
293.15 K, x2 = 0.0008991, x1 = 0.001179	0.455
293.15 K, x2 = 0.0008995, x1 = 0.0007571	0.334
293.15 K, x2 = 0.001794, x1 = 0.00278	0.851
293.15 K, x2 = 0.001795, x1 = 0.002175	0.705
293.15 K, x2 = 0.001796, x1 = 0.001292	0.464
293.15 K, x2 = 0.001796, x1 = 0.001777	0.602
293.15 K, x2 = 0.001797, x1 = 0.0008196	0.325
298.15 K, x2 = 0.0008949, x1 = 0.005843	1.59
298.15 K, x2 = 0.000895, x1 = 0.005779	1.58
298.15 K, x2 = 0.0008952, x1 = 0.005494	1.54
298.15 K, x2 = 0.0008955, x1 = 0.005188	1.5
298.15 K, x2 = 0.0008958, x1 = 0.004866	1.45
298.15 K, x2 = 0.0008961, x1 = 0.004511	1.4
298.15 K, x2 = 0.0008965, x1 = 0.004122	1.32
298.15 K, x2 = 0.0008969, x1 = 0.003697	1.24
298.15 K, x2 = 0.0008973, x1 = 0.003225	1.12
298.15 K, x2 = 0.0008977, x1 = 0.002752	1
298.15 K, x2 = 0.0008982, x1 = 0.002252	0.857
298.15 K, x2 = 0.0008984, x1 = 0.001935	0.762
298.15 K, x2 = 0.0008988, x1 = 0.001553	0.633
298.15 K, x2 = 0.0008991, x1 = 0.001178	0.509
298.15 K, x2 = 0.0008995, x1 = 0.0007571	0.36
298.15 K, x2 = 0.001794, x1 = 0.002776	0.953
298.15 K, x2 = 0.001795, x1 = 0.002171	0.788
298.15 K, x2 = 0.001796, x1 = 0.00129	0.518
298.15 K, x2 = 0.001796, x1 = 0.001774	0.671
298.15 K, x2 = 0.001797, x1 = 0.0008196	0.36
303.15 K, x2 = 0.0008949, x1 = 0.005838	1.78
303.15 K, x2 = 0.000895, x1 = 0.005773	1.77
303.15 K, x2 = 0.0008952, x1 = 0.005489	1.73
303.15 K, x2 = 0.0008955, x1 = 0.005185	1.68
303.15 K, x2 = 0.0008958, x1 = 0.004861	1.62
303.15 K, x2 = 0.0008961, x1 = 0.004508	1.56
303.15 K, x2 = 0.0008965, x1 = 0.004119	1.48
303.15 K, x2 = 0.0008969, x1 = 0.003694	1.38
303.15 K, x2 = 0.0008973, x1 = 0.003221	1.25
303.15 K, x2 = 0.0008977, x1 = 0.002748	1.11
303.15 K, x2 = 0.0008982, x1 = 0.002248	0.952
303.15 K, x2 = 0.0008984, x1 = 0.001933	0.834
303.15 K, x2 = 0.0008988, x1 = 0.001553	0.687
303.15 K, x2 = 0.0008991, x1 = 0.001178	0.563
303.15 K, x2 = 0.0008995, x1 = 0.0007553	0.418
303.15 K, x2 = 0.001794, x1 = 0.002774	1.06
303.15 K, x2 = 0.001795, x1 = 0.002169	0.875
303.15 K, x2 = 0.001796, x1 = 0.001289	0.574
303.15 K, x2 = 0.001796, x1 = 0.001774	0.741
303.15 K, x2 = 0.001797, x1 = 0.0008196	0.4
308.15 K, x2 = 0.000895, x1 = 0.005759	2.02
308.15 K, x2 = 0.000895, x1 = 0.005823	2.04
308.15 K, x2 = 0.0008953, x1 = 0.005478	1.95
308.15 K, x2 = 0.0008955, x1 = 0.005172	1.88
308.15 K, x2 = 0.0008958, x1 = 0.00485	1.8
308.15 K, x2 = 0.0008961, x1 = 0.004497	1.72
308.15 K, x2 = 0.0008965, x1 = 0.00411	1.63
308.15 K, x2 = 0.0008969, x1 = 0.003686	1.51
308.15 K, x2 = 0.0008973, x1 = 0.003214	1.36
308.15 K, x2 = 0.0008977, x1 = 0.002743	1.2
308.15 K, x2 = 0.0008982, x1 = 0.002245	1.02
308.15 K, x2 = 0.0008984, x1 = 0.001928	0.908
308.15 K, x2 = 0.0008988, x1 = 0.001549	0.78
308.15 K, x2 = 0.0008991, x1 = 0.001174	0.643
308.15 K, x2 = 0.0008995, x1 = 0.0007535	0.488
308.15 K, x2 = 0.001794, x1 = 0.002767	1.15
308.15 K, x2 = 0.001795, x1 = 0.002166	0.937
308.15 K, x2 = 0.001796, x1 = 0.001287	0.631
308.15 K, x2 = 0.001796, x1 = 0.001768	0.805
308.15 K, x2 = 0.001797, x1 = 0.0008178	0.46
